Measurements reported in BindingDB's records for doi:10.1021/ml3003346 (2012).
pIC50: −log10 of the molar value.

Assay: Inhibition of EZH2-mediated proliferation of human LNCaP cells after 6 days by chemiluminescence analysis

- pIC50: 5.35
SMILES: Cc1cc(C)c(CNC(=O)c2cc(-c3ccc(N4CCN(C)CC4)nc3)cc3c2cnn3C(C)C)c(=O)[nH]1
